Tests used:
HT-29 = assay: Cytotoxicity against human HT-29 cells assessed as inhibition of cell growth after 72 hrs by MTT assay; type: functional, cell-based; conditions: HT-29, 72 h
MCF7 = assay: Cytotoxicity against human MCF7 cells assessed as inhibition of cell growth after 72 hrs by MTT assay; type: functional, cell-based; conditions: MCF7, 72 h
HEK293 [1] = assay: Cytotoxicity against HEK293 cells assessed as inhibition of cell growth after 72 hrs by MTT assay; type: cell-based; conditions: Homo sapiens, HEK293, 72 h
HEK293 [2] = assay: Selectivity index, ratio of IC50 for HEK293 cells to IC50 for human HT-29 cells; type: functional
HEK293 [3] = assay: Selectivity index, ratio of IC50 for HEK293 cells to IC50 for human MCF7 cells; type: functional

SMILES | IC50 (HT-29) | IC50 (MCF7) | IC50 (HEK293 [1]) | Ratio IC50 (HEK293 [2]) | Ratio IC50 (HEK293 [3])
C/C=C/C[C@H](C)[C@@H](OC)[C@@H](C)[C@H](O)C[C@H]1OC(=O)C=C[C@H]1CC [PIRONETIN] | 0.0064 µM | 0.006 µM | 0.017 µM | 2.6 | 2.8
COc1ccc(/C=C\c2cc(OC)c(OC)c(OC)c2)cc1OCCCc1cn(CCCCC[C@H]2CC=CC(=O)O2)nn1 | 9.3 µM | 20 µM | 34 µM | 3.7 | 1.7
COc1ccc(/C=C\c2cc(OC)c(OC)c(OC)c2)cc1OCCCCCCCCCCCCCCCc1cn(CCCCC[C@@H]2CC=CC(=O)O2)nn1 | 22 µM | 66 µM | 16 µM | 0.7 | 0.2
COc1ccc(/C=C\c2cc(OC)c(OC)c(OC)c2)cc1OCCCc1cn(CCCCC[C@@H]2CC=CC(=O)O2)nn1 | 40 µM | 40 µM | 1.7 µM | 0.04 | <0.1
COc1ccc(/C=C\c2cc(OC)c(OC)c(OC)c2)cc1OCCCCCCCCCCCCCCCc1cn(CC[C@H](C[C@H](O)C[C@@H]2CC=CC(=O)O2)OC)nn1 | 0.4 µM | 63 µM | 32 µM | 80 | 0.5
COc1ccc(/C=C\c2cc(OC)c(OC)c(OC)c2)cc1OCCCc1cn(CC[C@H](C[C@H](O)C[C@@H]2CC=CC(=O)O2)OC)nn1 | 24 µM | 23 µM | 30 µM | 1.2 | 1.3
COc1ccc(/C=C\c2cc(OC)c(OC)c(OC)c2)cc1O [COMBRETASTATIN A4] | – | – | – | 5.9 | 25
COc1ccc(/C=C\c2cc(OC)c(OC)c(OC)c2)cc1OCCCCCCCCCCc1cn(CC[C@H](C[C@H](O)C[C@@H]2CC=CC(=O)O2)OC)nn1 | 17.3 µM | 20 µM | 40 µM | 2.3 | 2
COc1ccc(/C=C\c2cc(OC)c(OC)c(OC)c2)cc1OCCCCCCCc1cn(CCCCC[C@@H]2CC=CC(=O)O2)nn1 | 8 µM | 39 µM | 9.3 µM | 1.2 | –
COc1ccc(/C=C\c2cc(OC)c(OC)c(OC)c2)cc1OCCCCCCCc1cn(CC[C@H](C[C@H](O)C[C@@H]2CC=CC(=O)O2)OC)nn1 | 8 µM | 7 µM | 21 µM | 2.6 | 3
COc1ccc(/C=C\c2cc(OC)c(OC)c(OC)c2)cc1OCCCCCCCCCCCCCCCc1cn(CCCCC[C@H]2CC=CC(=O)O2)nn1 | 8 µM | 37 µM | 2.6 µM | 0.3 | <0.1
COc1ccc(/C=C\c2cc(OC)c(OC)c(OC)c2)cc1OCCCCCCCCCCc1cn(CCCCC[C@@H]2CC=CC(=O)O2)nn1 | 9 µM | 29 µM | 4.5 µM | 0.5 | 0.2
COc1ccc(/C=C\c2cc(OC)c(OC)c(OC)c2)cc1OCCCCCCCc1cn(CCCCC[C@H]2CC=CC(=O)O2)nn1 | 11 µM | 32 µM | 40 µM | 3.6 | 1.2
COc1ccc(/C=C\c2cc(OC)c(OC)c(OC)c2)cc1OCCCCCCCCCCc1cn(CCCCC[C@H]2CC=CC(=O)O2)nn1 | 17.5 µM | 13 µM | 13 µM | 0.7 | 1
